From article PMC3618669 (Journal of molecular recognition : JMR, 2013)

T1: CD40L (CD154) (Homo sapiens, UniProt P29965)
T1 sequence (P29965 108-261): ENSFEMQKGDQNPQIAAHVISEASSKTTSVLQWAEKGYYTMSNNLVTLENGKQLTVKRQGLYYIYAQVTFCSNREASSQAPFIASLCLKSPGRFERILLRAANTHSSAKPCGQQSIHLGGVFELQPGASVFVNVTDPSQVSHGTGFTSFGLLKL


Tests used:
[1] = target: T1, CD40L (CD154); experiment: spectrophotometric metachromatic shift titration; type: binding
[2] = target: bovine serum albumin (BSA) (Bos taurus, UniProt P02769); experiment: spectrophotometric metachromatic shift titration; type: binding
[3] = target: the molecule itself; experiment: SEC

bovine serum albumin (BSA), sequence (P02769 25-607): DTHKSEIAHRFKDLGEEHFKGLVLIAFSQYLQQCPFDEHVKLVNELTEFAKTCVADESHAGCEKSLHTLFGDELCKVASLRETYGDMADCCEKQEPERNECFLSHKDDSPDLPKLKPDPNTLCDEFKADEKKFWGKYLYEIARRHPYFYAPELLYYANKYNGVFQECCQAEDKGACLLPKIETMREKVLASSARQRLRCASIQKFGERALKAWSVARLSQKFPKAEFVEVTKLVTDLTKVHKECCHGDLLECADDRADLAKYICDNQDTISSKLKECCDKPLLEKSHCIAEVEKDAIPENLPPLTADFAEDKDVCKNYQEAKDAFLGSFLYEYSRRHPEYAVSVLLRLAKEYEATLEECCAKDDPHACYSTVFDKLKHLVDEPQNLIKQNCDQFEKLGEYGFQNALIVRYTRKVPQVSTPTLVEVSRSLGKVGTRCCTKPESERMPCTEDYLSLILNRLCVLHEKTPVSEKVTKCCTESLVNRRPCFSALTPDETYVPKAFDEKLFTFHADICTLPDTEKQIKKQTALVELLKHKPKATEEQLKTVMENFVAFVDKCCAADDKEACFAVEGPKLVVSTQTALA

| Molecule | Kd [1] | Kd [2] | stoichiometry N [3] |
| --- | --- | --- | --- |
| O=C1OC2(c3ccccc31)c1cc(I)c(O)c(I)c1Oc1c2cc(I)c(O)c1I [ErB, erythrosine B] | 20 µM | 14 µM |  |
| recombinant human histidine-tagged extracellular CD40L (ligand, UniProt P29965 108-261, looked up) ENSFEMQKGDQNPQIAAHVISEASSKTTSVLQWAEKGYYTMSNNLVTLENGKQLTVKRQGLYYIYAQVTFCSNREASSQAPFIASLCLKSPGRFERILLRAANTHSSAKPCGQQSIHLGGVFELQPGASVFVNVTDPSQVSHGTGFTSFGLLKL |  |  | 3 |
